Measured values published in patent publication US4532255A, “Amidine compounds and anticomplement agent comprising same” (Torii & Co., Ltd., priority 1980, dated 1985).
“And” between values parts separate entries of the source, which are not always exact repeats. Identical values can stand only once.

Key:
[1] = tested on: complement mediated hemolysis; assay: Inhibition of complement mediated hemolysis; assay type: cell-based
Experimental: The principle of this method is based on the fact that hemolysis is caused by the activation of complement, when the latter is added to a complex (immune complex) of erythrocytes and the antibody thereof. The degree of hemolysis varies in proportion to the amount of complement added. Therefore, when a known amount of complement admixed with a C1 esterase inhibitor is used, the hemolysis must be suppressed in proportion to the inhibitory activity.

[2] = tested on: complement; conditions: Y. Takada et al., Immunology 1978; cited from earlier work
[3] = target: T1, Trypsin (Bos taurus, UniProt P00760); assay: Anti-trypsin activity (hydrolysis of TAME); assay type: biochemical; conditions: molar concentration inhibiting 50% of TAME hydrolysis; read-out: Trypsin ID50
T1 sequence (P00760 24-246): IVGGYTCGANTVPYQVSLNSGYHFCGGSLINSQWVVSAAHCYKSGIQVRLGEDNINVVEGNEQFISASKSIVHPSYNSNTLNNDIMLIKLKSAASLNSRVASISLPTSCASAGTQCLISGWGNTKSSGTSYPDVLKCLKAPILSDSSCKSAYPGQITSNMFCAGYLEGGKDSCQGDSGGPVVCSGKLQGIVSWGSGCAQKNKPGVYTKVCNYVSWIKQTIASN
Experimental: (§1) The anti-trypsin, anti-plasmin, anti-kallikrein and anti-thrombin activities were determined according to the method of Muramatsu et al. [M. Muramatsu, T. Onishi, S. Makino, Y. Hayashi and S. Fujii, J. of Biochem., 58, 214 (1965)]. […] The compound No. corresponds to the compound number shown in Examples.

[4] = target: T2, Plasmin (Homo sapiens, UniProt P00747); assay: Anti-plasmin activity (hydrolysis of TAME); assay type: biochemical; conditions: molar concentration inhibiting 50% of TAME hydrolysis; read-out: Plasmin ID50
T2 sequence (P00747 581-810 limits assumed, species assumed): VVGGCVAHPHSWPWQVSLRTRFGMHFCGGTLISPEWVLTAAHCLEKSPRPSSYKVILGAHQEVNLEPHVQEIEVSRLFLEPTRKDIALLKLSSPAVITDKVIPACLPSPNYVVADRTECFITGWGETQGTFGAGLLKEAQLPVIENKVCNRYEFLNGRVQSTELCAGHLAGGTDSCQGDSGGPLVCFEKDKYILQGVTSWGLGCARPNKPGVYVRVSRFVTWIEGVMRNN
T2 sequence (P00747 97-580 partner limits assumed, species assumed): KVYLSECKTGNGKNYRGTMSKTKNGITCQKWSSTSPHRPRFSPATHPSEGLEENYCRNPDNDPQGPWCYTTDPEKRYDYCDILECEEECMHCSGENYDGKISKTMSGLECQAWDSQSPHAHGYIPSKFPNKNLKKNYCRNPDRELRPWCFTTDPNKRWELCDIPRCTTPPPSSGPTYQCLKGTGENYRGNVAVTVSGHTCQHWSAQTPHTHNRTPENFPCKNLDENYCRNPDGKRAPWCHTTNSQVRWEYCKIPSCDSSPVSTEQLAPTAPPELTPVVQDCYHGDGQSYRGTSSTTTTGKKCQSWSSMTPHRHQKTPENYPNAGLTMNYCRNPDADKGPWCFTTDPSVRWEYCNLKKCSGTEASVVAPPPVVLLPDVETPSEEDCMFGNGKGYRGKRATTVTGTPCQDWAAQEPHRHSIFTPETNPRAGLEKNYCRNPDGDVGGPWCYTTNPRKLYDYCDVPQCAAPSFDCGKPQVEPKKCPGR
Experimental: as §1

[5] = target: T3, Thrombin (Homo sapiens, UniProt P00734); assay: biochemical; conditions: for inhibition at 10 µM: at 1×10^-5 M, read-out: Thrombin percentage inhibition; for IC50: molar concentration inhibiting 50% of TAME hydrolysis, read-out: Thrombin ID50
[6] = target: T4, C1r (Homo sapiens, UniProt P00736); assay: Anti-C1 esterase (C1r) activity (hydrolysis of AAME); assay type: biochemical; conditions: for IC50: AAME hydrolysis, read-out: Anti-C1 activity, C1r ID50
T4 sequence (P00736 464-705 limits assumed): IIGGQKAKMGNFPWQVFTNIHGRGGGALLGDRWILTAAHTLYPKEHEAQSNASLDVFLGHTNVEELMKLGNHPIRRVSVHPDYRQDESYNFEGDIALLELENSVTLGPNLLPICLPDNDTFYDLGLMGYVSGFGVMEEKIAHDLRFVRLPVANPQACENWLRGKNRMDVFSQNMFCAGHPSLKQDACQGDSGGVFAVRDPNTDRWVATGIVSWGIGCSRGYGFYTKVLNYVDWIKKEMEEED
T4 sequence (P00736 18-463 partner limits assumed): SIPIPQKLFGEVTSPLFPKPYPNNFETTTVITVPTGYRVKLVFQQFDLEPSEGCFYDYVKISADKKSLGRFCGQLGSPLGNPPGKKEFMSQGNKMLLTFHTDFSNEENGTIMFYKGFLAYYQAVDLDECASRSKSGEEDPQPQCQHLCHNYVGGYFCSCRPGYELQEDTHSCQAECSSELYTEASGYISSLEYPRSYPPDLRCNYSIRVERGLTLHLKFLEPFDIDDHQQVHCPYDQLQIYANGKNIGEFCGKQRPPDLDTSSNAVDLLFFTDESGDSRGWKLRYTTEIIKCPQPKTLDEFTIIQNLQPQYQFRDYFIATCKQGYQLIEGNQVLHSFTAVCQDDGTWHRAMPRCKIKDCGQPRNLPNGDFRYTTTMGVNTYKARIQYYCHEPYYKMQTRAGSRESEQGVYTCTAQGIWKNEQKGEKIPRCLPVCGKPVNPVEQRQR
Experimental: The anti-Cl esterase ([…]) activity was determined according to the method of Okamura et al. [K. Okamura, M. Muramatsu and S. Fujii, Biochem. Biophys.

[7] = target: T5, C1s (Homo sapiens, UniProt P09871); assay: biochemical; conditions: at 1×10^-5 M; read-out: Anti-C1 activity, C1s percent inhibition
T5 sequence (P09871 438-688 limits assumed): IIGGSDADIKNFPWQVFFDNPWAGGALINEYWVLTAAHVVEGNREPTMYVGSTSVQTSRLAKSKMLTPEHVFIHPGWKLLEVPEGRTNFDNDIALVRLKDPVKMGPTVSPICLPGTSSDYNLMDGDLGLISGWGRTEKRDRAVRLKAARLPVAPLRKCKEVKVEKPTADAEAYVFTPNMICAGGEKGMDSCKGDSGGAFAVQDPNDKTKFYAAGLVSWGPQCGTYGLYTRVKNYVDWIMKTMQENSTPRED
T5 sequence (P09871 16-437 partner limits assumed): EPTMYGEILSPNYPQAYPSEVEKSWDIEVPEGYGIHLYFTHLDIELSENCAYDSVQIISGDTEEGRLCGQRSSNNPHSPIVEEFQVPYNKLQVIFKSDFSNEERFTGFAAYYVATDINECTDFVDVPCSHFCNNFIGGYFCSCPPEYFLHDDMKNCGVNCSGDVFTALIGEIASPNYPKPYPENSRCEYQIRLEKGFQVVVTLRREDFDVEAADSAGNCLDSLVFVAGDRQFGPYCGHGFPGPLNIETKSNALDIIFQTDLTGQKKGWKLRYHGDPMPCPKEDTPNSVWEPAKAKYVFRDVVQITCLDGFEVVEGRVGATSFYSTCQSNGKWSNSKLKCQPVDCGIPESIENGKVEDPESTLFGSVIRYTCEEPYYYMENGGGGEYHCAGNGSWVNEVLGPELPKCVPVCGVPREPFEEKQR

[8] = tested on: Kallikrein; assay: Anti-kallikrein activity (hydrolysis of TAME); assay type: biochemical; conditions: molar concentration inhibiting 50% of TAME hydrolysis; read-out: Kallikrein ID50
Experimental: The anti-trypsin, anti-plasmin, anti-kallikrein and anti-thrombin activities were determined according to the method of Muramatsu et al. [M. Muramatsu, T. Onishi, S. Makino, Y. Hayashi and S. Fujii, J. of Biochem., 58, 214 (1965)]. The data summarized in Table 1 are expressed in terms of molar concentration (ID50) of the test compound which inhibits 50% of the activity of each enzyme to hydrolyze TAME (tosylalginine methyl ester). The compound No. corresponds to the compound number shown in Examples.

[9] = target: T5, C1s; assay: biochemical; conditions: ATEE hydrolysis; read-out: Anti-C1 activity, C1s ID50
Experimental: The anti-Cl esterase (Clr, Cls) activity was determined according to the method of Okamura et al. [K. Okamura, M. Muramatsu and S. Fujii, Biochem. Biophys. […] The figures in Table 2 have the following meanings:
Cls: Molar concentration of the test compound which inhibits 50% of the ability of Cls to hydrolyse ATEE (acetyltyrosin ethyl ester).

[10] = tested on: Forssman shock; assay: Forssman shock (survival time after hemolysin); assay type: in vivo, Male Hartlay guinea pig; conditions: 5 minutes before hemolysin
Text: Quite different from other animals, guinea pig has on the surface of its organs a specific antigen called Forssman antigen which specifically reacts with the antibody of sheep erythrocyte. Forssman shock is based on the above principle and is a shock caused by the administration of antibody of sheep erythrocyte to a guinea pig. The Forssman shock was investigated in detail by many researchers and it was definitely shown that this shock is a model case where the complement plays the principal part and that the shock is associated with a classical pathway in which the complement system is activated progressively starting from C1. Since the participation of complement in autoimmune diseases has been established, the Forssman shock can be said to be a useful means for testing a drug for autoimmune diseases. A drug effective for the treatment of Forssman shock is useful as a drug of autoimmune diseases. [Anti-trypsin, anti-plasmin, anti-kallikrein and anti-thrombin activities]
The experiment was performed according to the method of I. G. Offerness et al. [Biochem. Pharmacol., 27 (14), 1873-1878 (1978)]. Male Hartlay guinea pig of about 300 g in body weight was used. Each guinea pig of the control group was administered intravenously with 0.5 ml (minimum dose to cause the shock) of hemolysin (commercial hemolysin, 5,000 U as assayed by the method of Ogata) and the time elapsed until death was observed. For the test group, each guinea pig was administered intravenously with the test compound 5 minutes before the administration of hemolysin and the time (second) elapsed until death was observed.

[11] = Toxicity, median lethal dose (LD50); conditions: in vivo
[12] = target: T1, Trypsin; conditions: G. Wagner et al., Pharmazie 1977; cited from earlier work
[13] = target: T2, Plasmin; conditions: G. Wagner et al., Pharmazie 1977; cited from earlier work
[14] = target: T3, Thrombin; conditions: G. Wagner et al., Pharmazie 1977; cited from earlier work
[15] = 1.0 mg/kg intravenous, control average 465 (No. 27), 428 (No. 22)

| Structure (SMILES) | Inhibition of complement mediated hemolysis (%) ([1]; 1 × 10^-4) | Inhibition of complement mediated hemolysis (%) ([1]; 1 × 10^-5) | Inhibition of complement mediated hemolysis (%) ([1]; 1 × 10^-6) | Inhibition of complement mediated hemolysis (%) ([1]; 1 × 10^-7) | IC50 [3] | IC50 [4] | inhibition at 10 µM [5] | IC50 [8] | IC50 [6] | IC50 [9] | Time elapsed until death, individual animal ([10]; 1.0 mg/kg intravenous) | Time elapsed until death, average [10, 15] | LD50 ([11]; ip) | LD50 ([11]; po) | IC50 [5] | further results |
| --- | --- | --- | --- | --- | --- | --- | --- | --- | --- | --- | --- | --- | --- | --- | --- | --- |
| CC(=O)N[C@@H](CC(C)C)C(=O)N[C@@H](CC(C)C)C(=O)N[C@H](C=O)CCCNC(=N)N [Leupeptin, reference compound] | 97% | 52% | 0% | 0% |  |  |  |  |  |  |  |  |  |  |  | Anti-complement activity in words [2]: having an anti-complement activity |
| N=C(N)c1ccc2cc(OC(=O)CCc3ccc(N)cc3)ccc2c1 [Compound 51, 6-amidino-2-naphthyl 4-aminophenylpropionate] | 54% | 6% | 1% | 0% | 10 µM | 6 µM | 35% |  |  |  |  |  |  |  |  | inhibition at 10 µM ([6]; at 1×10^-5 M, read-out: Anti-C1 activity, C1r percent inhibition): 18%; inhibition at 10 µM [7]: 21% |
| N=C(N)c1ccc2cc(OC(=O)c3ccc(CN)cc3)ccc2c1 [Compound 22, 6-amidino-2-naphthyl 4-aminomethylbenzoate] | 100% | 99% | 90% | 48% | 4 µM | 4 µM | 26% | 3 µM | 0.3 µM | 0.2 µM | 240 s and 630 s and 250 s and 570 s and 440 s and 675 s | 468 s | 200 mg/kg | 2500 mg/kg |  | Time elapsed until death, individual animal ([10]; 3.0 mg/kg intravenous): 745 s and 1410 s and 600 s and 885 s and 455 s and 435 s; Time elapsed until death, average ([10]; 3.0 mg/kg intravenous, control average 428): 755 s |
| N=C(N)c1ccc2cc(O)ccc2c1 [6-amidino-2-naphthol, reference compound] |  |  |  |  | > 1000 µM | 440 µM |  | > 1000 µM |  |  |  |  |  |  | > 1000 µM | Trypsin inhibition in words [12]: inhibits trypsin, plasmin and thrombin; Plasmin inhibition in words [13]: inhibits trypsin, plasmin and thrombin; Thrombin inhibition in words [14]: inhibits trypsin, plasmin and thrombin |
| N=C(N)Nc1ccc(C(=O)Oc2ccc3cc(C(=N)N)ccc3c2)cc1 [Compound 27, 6-amidino-2-naphthyl 4-guanidinobenzoate] | 100% | 100% | 97% | 44% |  |  |  | 5 µM | 0.1 µM | 0.05 µM | 740 sec. and 820 sec. and Survival and 670 sec. and 1325 sec. | > 889 s | 200 mg/kg | 2500 mg/kg | 3 µM | Time elapsed until death, individual animal ([10]; 0.5 mg/kg intravenous): 732 s and 740 s and 723 s and 724 s and 590 s and 410 s; Time elapsed until death, average ([10]; 0.5 mg/kg intravenous, control average 465): 653 s |
